Experimental data reported in patent US7268161B2, “Comprehensive pharmacologic therapy for treatment of obesity including cysteine” (priority 1999, dated 2007).

Assays:
tachyphylaxis = test: Cysteine therapy in patients with tachyphylaxis from drugs that increase synaptic norepinephrine; assay type: in vivo; conditions: patients on drugs which cause increased levels of norepinephrine in the synapse
Text: The core of Tyrosine Hydroxylase is a “heme-thiolate” protein (see FIG. 1). The “heme-thiolate” protein is composed of iron in the form of a cytochrome P-450 complex and Cysteine. Patients experiencing tachyphylaxis from drugs which cause increased levels of norepinephrine in the synapse, generally have serum iron levels which are normal.

norepinephrine = conditions: drugs used in treatment of a patient for weight loss; cited from earlier work

Structure (SMILES) | reversal of tachyphylaxis (tachyphylaxis) | increase of intersynaptic levels of norepinephrine (norepinephrine)
N[C@@H](CS)C(=O)O [Cysteine] | effective in reversing the tachyphylaxis | –
CC(C)(N)Cc1ccccc1 [Phentermine] | – | ≥ 2,500 times
